{"source": "patent US4205171A", "about": "“Aminomethanobenzazocines and nitromethanobenzazocines” (Sterling Drug Inc., priority 1978, dated 1980)", "key": {"[1]": {"tested_on": "acetylcholine-induced writhing", "test": "Anti-acetylcholine writhing test (analgesia)", "assay_type": "in vivo, mice", "conditions": "for ED50: Mus musculus, 20 min, mice; for Oral:Parenteral Potency Ratio: peroral ED50 / subcutaneous ED50, anti-acetylcholine test", "description": "In this test the ability of test compounds to prevent acetylcholine-induced writhing in mice is determined. The following is an adaptation of the method of Collier and co-workers (Brit. J. Pharmacol. Chemother., 32, 295(1968)) by Anne K. Pierson. Anti-acetylcholine Writhing Test\nThis response has also been called writhing. Animals are pretreated with test compounds (20 minutes for both subcutaneous and oral routes) and observed for two minutes immediately following the administration of acetylcholine. Mice not responding during the two-minute observation period are scored protected while those responding one or more times are scored not protected. Test compounds are screened at doses of 75 and 25 milligrams per kilogram subcutaneously or 150 and 50 mlligrams per kilogram orally. […] ED50 values for active compounds are estimated by probit analysis of quantal scores for 4 or more dosage levels using 15 animals per dose. Vehicle-pretreated control animals are tested concurrently with each run of 15 experimental animals."}, "[2]": {"test": "Irritation at the injection site", "assay_type": "in vivo", "conditions": "rabbits", "source_text": "A still further important difference is the comparative irritation at the injection site of pentazocine and the compound of Example 1B. The threshold irritation concentration of the latter in rabbits was 2% and of pentazocine, 0.5%."}, "[3]": {"test": "Intravenous administration in the dog (unconsciousness, heart rate, blood pressure)", "assay_type": "in vivo"}, "[4]": {"tested_on": "phenazocine (agonist effect in rat tail-flick)", "test": "Tail-flick antagonist test against phenazocine", "conditions": "for ED50: Rattus norvegicus, sc, 10 min, read-out: Tail-flick Antagonist AD50"}, "[5]": {"tested_on": "tail-flick response to thermal stimulus", "test": "Tail-flick agonist test", "assay_type": "in vivo", "conditions": "rats, subcutaneous; for Tail-flick Agonist ED50: 30 minutes after injection", "description": "Rats normally respond to a thermal stimulus applied to the tail by flicking their tails out from under the heat source. The intensity of the stimulus utilized is one which produces control response-times (CRT) of 2-4 seconds. Experimental response-times (ERT) are determined 30 minutes after subcutaneous injections. […] Therefore, the maximum possible increase (MPI) in response-time for any given animal is 20 minus the CRT. The average % effect, or % of the maximum possible increase (%MPI) obtained after any given test compound treatment is calculated by the formula [formula] […] Exptl."}, "[6]": {"test": "Tests for analgesia, comparison with cyclazocine and pentazocine", "assay_type": "in vivo", "conditions": "both subcutaneously and orally", "source_text": "The compound of Example 1B having in the free base form the structural formula [drawing 14] is the preferred species of this invention and the biological properties thereof have been carefully compared with those of pentazocine and cyclazocine."}, "[7]": {"conditions": "po, peroral, read-out: Peroral ED50, anti-acetylcholine test"}, "[8]": {"conditions": "sc, subcutaneous, 20 minutes pretreatment, read-out: ED50, anti-acetylcholine writhing test"}}, "note": "Structures can show the parent of a compound that is named as a salt. Where two headings read alike, the source gives them in different places."}
{"compound": "C[C@H]1[C@H]2Cc3ccc(N)cc3[C@]1(C)CCN2CC1CC1", "note": "(relative stereo) [Example 1B, 8-amino-3-(cyclopropylmethyl)-1,2,3,4,5,6-hexahydro-cis-6,11-dimethyl-2,6-methano-3-benzazocine dihydrochloride]", "values": [{"measurement": "ED50", "setting": "[1]; [7]", "value": 3.2, "unit": "mg/kg"}, {"measurement": "ED50", "setting": "[1]; [8]", "value": 0.8, "unit": "mg/kg"}, {"measurement": "Oral:Parenteral Potency Ratio", "setting": "[1]", "value": 4}, {"measurement": "Threshold irritation concentration", "setting": "[2]", "value": 2, "unit": "%"}, {"measurement": "Heart rate and blood pressure", "setting": "[3]", "value": "without compromising heart rate or blood pressure"}, {"measurement": "Salivation and tremors", "setting": "[3]", "value": "Salivation and tremors were observed"}, {"measurement": "Unconsciousness", "setting": "[3]", "value": "produced unconsciousness equivalent to a light plane of anesthesia"}, {"measurement": "ED50", "setting": "[4]", "value": 2.7, "unit": "mg/kg"}]}
{"compound": "C[C@H]1[C@H]2Cc3ccc(NCC4CC4)cc3[C@]1(C)CCN2CC1CC1", "note": "(relative stereo) [Example 2E, 3-(cyclopropylmethyl)-8-(cyclopropylmethylamino)-1,2,3,4,5,6-hexahydro-cis-6,11-dimethyl-2,6-methano-3-benzazocine hydrochloride]", "values": [{"measurement": "ED50", "setting": "[1]; [8]", "value": 0.7, "unit": "mg/kg"}, {"measurement": "ED50", "setting": "[4]", "value": 8, "unit": "mg/kg"}]}
{"compound": "CNc1ccc2c(c1)[C@]1(C)CCN(CC3CC3)[C@H](C2)[C@@H]1C", "note": "(relative stereo) [Example 3B, 3-(cyclopropylmethyl)-1,2,3,4,5,6-hexahydro-cis-6,11-dimethyl-8-(methylamino)-2,6-methano-3-benzazocine dihydrochloride ethanolate hydrate]", "values": [{"measurement": "ED50", "setting": "[1]; [8]", "value": 0.44, "unit": "mg/kg"}, {"measurement": "ED50", "setting": "[4]", "value": 1.3, "unit": "mg/kg"}, {"measurement": "Tail-flick Agonist % MPI", "setting": "[5]; at 120 mg./kg.", "value": 35, "unit": "%"}]}
{"compound": "C[C@H]1[C@H]2Cc3ccc(N(C)C)cc3[C@]1(C)CCN2CC1CC1", "note": "(relative stereo) [Example 4F, 3-cyclopropylmethyl-8-dimethylamino-cis-6,11-dimethyl-1,2,3,4,5,6-hexahydro-2,6-methano-3-benzazocine dihydrochloride]", "values": [{"measurement": "ED50", "setting": "[1]; [8]", "value": 0.79, "unit": "mg/kg"}, {"measurement": "Tail-flick Antagonist % Antagonism", "setting": "[4]; rats, subcutaneous, against phenazocine, at 10 mg./kg.", "value": 30, "unit": "%"}, {"measurement": "Tail-flick Antagonist % Antagonism", "setting": "[4]; rats, subcutaneous, against phenazocine, at 80 mg./kg.", "value": 32, "unit": "%"}, {"measurement": "Tail-flick Agonist % MPI", "setting": "[5]; at 60 mg./kg.", "value": 43, "unit": "%"}]}
{"compound": "CC(C)CN1CC[C@@]2(C)c3cc(N)ccc3C[C@@H]1[C@@H]2C", "note": "(relative stereo) [Example 5C, 8-amino-1,2,3,4,5,6-hexahydro-3-isobutyl-cis-6,11-dimethyl-2,6-methano-3-benzazocine dihydrochloride]", "values": [{"measurement": "ED50", "setting": "[1]; [8]", "value": 1.5, "unit": "mg/kg"}, {"measurement": "ED50", "setting": "[4]", "value": 9.4, "unit": "mg/kg"}]}
{"compound": "CCCN1CC[C@@]2(C)c3cc(N)ccc3C[C@@H]1[C@@H]2C", "note": "(relative stereo) [Example 6C, 8-amino-cis-6,11-dimethyl-1,2,3,4,5,6-hexahydro-3-propyl-2,6-methano-3-benzazocine dihydrochloride sesquihydrate]", "values": [{"measurement": "ED50", "setting": "[1]; [8]", "value": 5.6, "unit": "mg/kg"}, {"measurement": "ED50", "setting": "[4]", "value": 2, "unit": "mg/kg"}, {"measurement": "Tail-flick Agonist ED50", "setting": "[5]", "value": "Inactive at 60"}]}
{"compound": "C[C@H]1[C@H]2Cc3ccc(NCc4ccccc4)cc3[C@]1(C)CCN2CC1CC1", "note": "(relative stereo) [Example 7, 3-(cyclopropylmethyl)-1,2,3,4,5,6-hexahydro-cis-6,11-dimethyl-8-benzylamino-2,6-methano-3-benzazocine dihydrochloride]", "values": [{"measurement": "ED50", "setting": "[1]; [8]", "value": 1.6, "unit": "mg/kg"}, {"measurement": "ED50", "setting": "[4]", "value": 1, "unit": "mg/kg"}]}
{"compound": "C=CCN1CC[C@@]2(C)c3cc(N)ccc3C[C@@H]1[C@@H]2C", "note": "(relative stereo) [Example 8C, 8-amino-1,2,3,4,5,6-hexahydro-cis-6,11-dimethyl-3-(2-propenyl)-2,6-methano-3-benzazocine dihydrochloride]", "values": [{"measurement": "ED50", "setting": "[1]; [8]", "value": 2.5, "unit": "mg/kg"}, {"measurement": "ED50", "setting": "[4]", "value": 1.5, "unit": "mg/kg"}]}
{"compound": "CCNc1ccc2c(c1)[C@]1(C)CCN(CC3CC3)[C@H](C2)[C@@H]1C", "note": "(relative stereo) [Example 9B, 3-(cyclopropylmethyl)-8-(ethylamino)-1,2,3,4,5,6-hexahydro-cis-6,11-dimethyl-2,6-methano-3-benzazocine]", "values": [{"measurement": "ED50", "setting": "[1]; [8]", "value": 1.3, "unit": "mg/kg"}, {"measurement": "ED50", "setting": "[4]", "value": 10, "unit": "mg/kg"}, {"measurement": "Tail-flick Antagonist % Antagonism", "setting": "[4]; rats, subcutaneous, against phenazocine, at 80 mg./kg., different sample", "value": 19, "unit": "%"}, {"measurement": "Tail-flick Agonist % MPI", "setting": "[5]; at 60 mg./kg.", "value": 25, "unit": "%"}, {"measurement": "Tail-flick Agonist % MPI", "setting": "[5]; at 120 mg./kg., different sample", "value": 21, "unit": "%"}]}
{"compound": "CCCNc1ccc2c(c1)[C@]1(C)CCN(CC3CC3)[C@H](C2)[C@@H]1C", "note": "(relative stereo) [Example 10B, 3-(cyclopropylmethyl)-1,2,3,4,5,6-hexahydro-cis-6,11-dimethyl-8-(propylamino)-2,6-methano-3-benzazocine]", "values": [{"measurement": "ED50", "setting": "[1]; [8]", "value": 1.2, "unit": "mg/kg"}, {"measurement": "Tail-flick Antagonist % Antagonism", "setting": "[4]; rats, subcutaneous, against phenazocine, at 5 mg./kg., different sample", "value": 32, "unit": "%"}, {"measurement": "Tail-flick Antagonist % Antagonism", "setting": "[4]; rats, subcutaneous, against phenazocine, at 40 mg./kg.", "value": 31, "unit": "%"}]}
{"compound": "CCCCNc1ccc2c(c1)[C@]1(C)CCN(CC3CC3)[C@H](C2)[C@@H]1C", "note": "(relative stereo) [Example 11B, 8-(butylamino)-3-(cyclopropylmethyl)-1,2,3,4,5,6-hexahydro-cis-6,11-dimethyl-2,6-methano-3-benzazocine]", "values": [{"measurement": "ED50", "setting": "[1]; [8]", "value": 1, "unit": "mg/kg"}]}
{"compound": "CC[C@H]1[C@H]2Cc3ccc(N)cc3[C@]1(CC)CCN2CC1CC1", "note": "(relative stereo) [Example 12H, 8-amino-3-(cyclopropylmethyl)-cis-6,11-diethyl-1,2,3,4,5,6-hexahydro-2,6-methano-3-benzazocine dihydrochloride]", "values": [{"measurement": "ED50", "setting": "[1]; [8]", "value": 1.3, "unit": "mg/kg"}, {"measurement": "ED50", "setting": "[4]", "value": 3.8, "unit": "mg/kg"}]}
{"compound": "C[C@H]1[C@H]2Cc3ccc(N)cc3[C@]1(C)CCN2C", "note": "(relative stereo) [Formula G, α-2'-amino-2,5,9-trimethyl-6,7-benzomorphan, reference compound]", "values": [{"measurement": "ED50", "setting": "[1]; [8]", "value": 7.5, "unit": "mg/kg"}, {"measurement": "Narcotic antagonist activity", "setting": "[4]; rat, in vivo", "value": "not a narcotic antagonist"}, {"measurement": "Tail-flick Antagonist AD50", "setting": "[4]; rats, subcutaneous, against phenazocine", "value": "Inactive at 80"}, {"measurement": "Tail-flick Agonist ED50", "setting": "[5]", "value": "Inactive at 120"}]}
{"compound": "C[C@H]1[C@H]2Cc3ccc(O)cc3[C@]1(C)CCN2CC1CC1", "note": "(relative stereo) [cyclazocine, reference compound]", "values": [{"measurement": "ED50", "setting": "[1]; [7]", "value": 5.3, "unit": "mg/kg"}, {"measurement": "ED50", "setting": "[1]; [8]", "value": 0.15, "unit": "mg/kg"}, {"measurement": "Oral:Parenteral Potency Ratio", "setting": "[1]", "value": 35}, {"measurement": "Heart rate and blood pressure", "setting": "[3]", "value": "increases in heart rate and blood pressure"}, {"measurement": "Unconsciousness", "setting": "[3]", "value": "produced unconsciousness"}, {"measurement": "ED50", "setting": "[4]", "value": 0.028, "unit": "mg/kg"}, {"measurement": "Tail-flick Agonist ED50", "setting": "[5]", "value": "Inactive at 120"}]}
{"compound": "CC(C)=CCN1CCC2(C)c3cc(O)ccc3CC1C2C", "note": "(stereo not drawn) [pentazocine, reference compound]", "values": [{"measurement": "Potency relative to the compound of Example 1B in the tests for analgesia", "setting": "[6]", "value": "significantly less potent"}, {"measurement": "ED50", "setting": "[1]; [7]", "value": 51, "unit": "mg/kg"}, {"measurement": "ED50", "setting": "[1]; [8]", "value": 2.2, "unit": "mg/kg"}, {"measurement": "Oral:Parenteral Potency Ratio", "setting": "[1]", "value": 23}, {"measurement": "Threshold irritation concentration", "setting": "[2]", "value": 0.5, "unit": "%"}, {"measurement": "Unconsciousness", "setting": "[3]", "value": "without unconsciousness"}, {"measurement": "Convulsions", "setting": "[3]; single dose tested", "value": "induced convulsions"}, {"measurement": "ED50", "setting": "[4]", "value": 6.3, "unit": "mg/kg"}, {"measurement": "Tail-flick Agonist ED50", "setting": "[5]", "value": "Inactive at 120"}]}
